Results taken from the supplement of paper PMC13380429.

Assays:
Details in all cases: 72 h
Caco-2 [1] = assay: cell viability relative to DMSO; higher = less toxic
Calu-3 [2] = assay: as above
HepG2 [3] = assay: as above
U2OS [4] = assay: as above
Caco-2 [5] = assay: relative viability EC50 (midpoint between 100% and the lowest measured viability); higher = less toxic
Calu-3 [6] = assay: as above
HepG2 [7] = assay: as above
U2OS [8] = assay: as above
Caco-2 [9] = assay: drug sensitivity score (DSS) for viability; higher = more toxic; extreme values may be limits of the assay
Calu-3 [10] = assay: as above
HepG2 [11] = assay: as above
U2OS [12] = assay: as above
Vero E6 [13] = assay: cell viability relative to DMSO; higher = less toxic
Vero E6 [14] = assay: relative viability EC50 (midpoint between 100% and the lowest measured viability); higher = less toxic
Vero E6 [15] = assay: drug sensitivity score (DSS) for viability; higher = more toxic; extreme values may be limits of the assay

SMILES: CCCOc1ccc2[nH]cc(C3=CCNCC3)c2n1
- cell viability (Caco-2 [1]; 1 nM): 95.1%
- cell viability (Caco-2 [1]; 10 nM): 95.4%
- cell viability (Caco-2 [1]; 100 nM): 95.6%
- cell viability (Caco-2 [1]; 1000 nM): 94.2%
- cell viability (Caco-2 [1]; 10000 nM): 100%
- cell viability (Calu-3 [2]; 1 nM): 94.1%
- cell viability (Calu-3 [2]; 10 nM): 84.5%
- cell viability (Calu-3 [2]; 100 nM): 96.1%
- cell viability (Calu-3 [2]; 1000 nM): 96.2%
- cell viability (Calu-3 [2]; 10000 nM): 93.2%
- cell viability (HepG2 [3]; 1 nM): 104%
- cell viability (HepG2 [3]; 10 nM): 106%
- cell viability (HepG2 [3]; 100 nM): 99.1%
- cell viability (HepG2 [3]; 1000 nM): 97.2%
- cell viability (HepG2 [3]; 10000 nM): 96.4%
- cell viability (U2OS [4]; 1 nM): 103%
- cell viability (U2OS [4]; 10 nM): 97.9%
- cell viability (U2OS [4]; 100 nM): 101%
- cell viability (U2OS [4]; 1000 nM): 101%
- cell viability (U2OS [4]; 10000 nM): 99.5%
- relative viability EC50 (Caco-2 [5]): > 10 µM
- relative viability EC50 (Calu-3 [6]): > 10 µM
- relative viability EC50 (HepG2 [7]): > 10 µM
- relative viability EC50 (U2OS [8]): > 10 µM
- drug sensitivity score (Caco-2 [9]): 0
- drug sensitivity score (Calu-3 [10]): 0
- drug sensitivity score (HepG2 [11]): 0
- drug sensitivity score (U2OS [12]): 0

SMILES: Clc1cccc(-n2nnnc2NCc2ccccc2Oc2ccccn2)c1Cl
- cell viability (Caco-2 [1]; 1 nM): 104%
- cell viability (Caco-2 [1]; 10 nM): 97.1%
- cell viability (Caco-2 [1]; 100 nM): 104%
- cell viability (Caco-2 [1]; 1000 nM): 96.2%
- cell viability (Caco-2 [1]; 10000 nM): 96.1%
- cell viability (Calu-3 [2]; 1 nM): 92%
- cell viability (Calu-3 [2]; 10 nM): 93.5%
- cell viability (Calu-3 [2]; 100 nM): 88%
- cell viability (Calu-3 [2]; 1000 nM): 89.1%
- cell viability (Calu-3 [2]; 10000 nM): 102%
- cell viability (HepG2 [3]; 1 nM): 104%
- cell viability (HepG2 [3]; 10 nM): 98.4%
- cell viability (HepG2 [3]; 100 nM): 104%
- cell viability (HepG2 [3]; 1000 nM): 104%
- cell viability (HepG2 [3]; 10000 nM): 92.1%
- cell viability (U2OS [4]; 1 nM): 101%
- cell viability (U2OS [4]; 10 nM): 98.9%
- cell viability (U2OS [4]; 100 nM): 100%
- cell viability (U2OS [4]; 1000 nM): 102%
- cell viability (U2OS [4]; 10000 nM): 98.9%
- relative viability EC50 (Caco-2 [5]): > 10 µM
- relative viability EC50 (Calu-3 [6]): > 10 µM
- relative viability EC50 (HepG2 [7]): > 10 µM
- relative viability EC50 (U2OS [8]): > 10 µM
- drug sensitivity score (Caco-2 [9]): 0
- drug sensitivity score (Calu-3 [10]): 0
- drug sensitivity score (HepG2 [11]): 0
- drug sensitivity score (U2OS [12]): 0

SMILES: Nc1nc(N)c2nc(-c3cccc(O)c3)cnc2n1
- cell viability (Caco-2 [1]; 1 nM): 93.5%
- cell viability (Caco-2 [1]; 10 nM): 105%
- cell viability (Caco-2 [1]; 100 nM): 99.1%
- cell viability (Caco-2 [1]; 1000 nM): 84.5%
- cell viability (Caco-2 [1]; 10000 nM): 86.1%
- cell viability (Calu-3 [2]; 1 nM): 99.9%
- cell viability (Calu-3 [2]; 10 nM): 97.5%
- cell viability (Calu-3 [2]; 100 nM): 103%
- cell viability (Calu-3 [2]; 1000 nM): 80%
- cell viability (Calu-3 [2]; 10000 nM): 34.1%
- cell viability (HepG2 [3]; 1 nM): 98.1%
- cell viability (HepG2 [3]; 10 nM): 99.7%
- cell viability (HepG2 [3]; 100 nM): 102%
- cell viability (HepG2 [3]; 1000 nM): 92.5%
- cell viability (HepG2 [3]; 10000 nM): 49.6%
- cell viability (U2OS [4]; 1 nM): 95.6%
- cell viability (U2OS [4]; 10 nM): 99.4%
- cell viability (U2OS [4]; 100 nM): 99.7%
- cell viability (U2OS [4]; 1000 nM): 95.5%
- cell viability (U2OS [4]; 10000 nM): 51.7%
- cell viability (Vero E6 [13]; 1 nM): 103%
- cell viability (Vero E6 [13]; 10 nM): 95.5%
- cell viability (Vero E6 [13]; 100 nM): 97.7%
- cell viability (Vero E6 [13]; 1000 nM): 98.4%
- cell viability (Vero E6 [13]; 10000 nM): 86.7%
- relative viability EC50 (Caco-2 [5]): > 10 µM
- relative viability EC50 (Calu-3 [6]): 1.4 µM
- relative viability EC50 (HepG2 [7]): 2 µM
- relative viability EC50 (Vero E6 [14]): > 10 µM
- drug sensitivity score (Caco-2 [9]): 1.6
- drug sensitivity score (Calu-3 [10]): 6.6
- drug sensitivity score (HepG2 [11]): 3.9
- drug sensitivity score (U2OS [12]): 3.2
- drug sensitivity score (Vero E6 [15]): 0.2

SMILES: O=C1C(Cl)=C(NCCN2CCOCC2)C(=O)c2ncccc21
- cell viability (Caco-2 [1]; 1 nM): 94%
- cell viability (Caco-2 [1]; 10 nM): 90.9%
- cell viability (Caco-2 [1]; 100 nM): 89.5%
- cell viability (Caco-2 [1]; 1000 nM): 68.4%
- cell viability (Caco-2 [1]; 10000 nM): 1.1%
- cell viability (Calu-3 [2]; 1 nM): 110%
- cell viability (Calu-3 [2]; 10 nM): 104%
- cell viability (Calu-3 [2]; 100 nM): 100%
- cell viability (Calu-3 [2]; 1000 nM): 109%
- cell viability (Calu-3 [2]; 10000 nM): 5.1%
- cell viability (HepG2 [3]; 1 nM): 94%
- cell viability (HepG2 [3]; 10 nM): 90.7%
- cell viability (HepG2 [3]; 100 nM): 87.6%
- cell viability (HepG2 [3]; 1000 nM): 86.1%
- cell viability (HepG2 [3]; 10000 nM): 1.6%
- cell viability (U2OS [4]; 1 nM): 98.1%
- cell viability (U2OS [4]; 10 nM): 94.1%
- cell viability (U2OS [4]; 100 nM): 99.5%
- cell viability (U2OS [4]; 1000 nM): 95.3%
- cell viability (U2OS [4]; 10000 nM): 0%
- cell viability (Vero E6 [13]; 1 nM): 102%
- cell viability (Vero E6 [13]; 10 nM): 100%
- cell viability (Vero E6 [13]; 100 nM): 100%
- cell viability (Vero E6 [13]; 1000 nM): 99.3%
- cell viability (Vero E6 [13]; 10000 nM): 65.4%
- relative viability EC50 (Caco-2 [5]): 1.46 µM
- relative viability EC50 (Calu-3 [6]): 3.61 µM
- relative viability EC50 (HepG2 [7]): 2.04 µM
- relative viability EC50 (U2OS [8]): 2.8 µM
- drug sensitivity score (Caco-2 [9]): 9.4
- drug sensitivity score (Calu-3 [10]): 4.7
- drug sensitivity score (HepG2 [11]): 7.8
- drug sensitivity score (U2OS [12]): 6.2
- drug sensitivity score (Vero E6 [15]): 1.7

SMILES: CCOc1ccccc1C(=O)O [2-ethoxybenzoic-acid]
- cell viability (Caco-2 [1]; 1 nM): 102%
- cell viability (Caco-2 [1]; 10 nM): 93.1%
- cell viability (Caco-2 [1]; 100 nM): 95.5%
- cell viability (Caco-2 [1]; 1000 nM): 97.9%
- cell viability (Caco-2 [1]; 10000 nM): 93.9%
- cell viability (Calu-3 [2]; 1 nM): 113%
- cell viability (Calu-3 [2]; 10 nM): 99.9%
- cell viability (Calu-3 [2]; 100 nM): 97.1%
- cell viability (Calu-3 [2]; 1000 nM): 99.6%
- cell viability (Calu-3 [2]; 10000 nM): 108%
- cell viability (HepG2 [3]; 1 nM): 111%
- cell viability (HepG2 [3]; 10 nM): 107%
- cell viability (HepG2 [3]; 100 nM): 93.5%
- cell viability (HepG2 [3]; 1000 nM): 101%
- cell viability (HepG2 [3]; 10000 nM): 91.7%
- cell viability (U2OS [4]; 1 nM): 95.8%
- cell viability (U2OS [4]; 10 nM): 99.6%
- cell viability (U2OS [4]; 100 nM): 93.7%
- cell viability (U2OS [4]; 1000 nM): 94.8%
- cell viability (U2OS [4]; 10000 nM): 98.7%
- relative viability EC50 (Caco-2 [5]): > 10 µM
- relative viability EC50 (Calu-3 [6]): > 10 µM
- relative viability EC50 (HepG2 [7]): > 10 µM
- relative viability EC50 (U2OS [8]): > 10 µM
- drug sensitivity score (Caco-2 [9]): 0
- drug sensitivity score (Calu-3 [10]): 0
- drug sensitivity score (HepG2 [11]): 0
- drug sensitivity score (U2OS [12]): 0

SMILES: Cc1noc(-c2ccc(-c3ccc(CC(=O)O)cc3)cc2)c1NC(=O)O[C@H](C)c1ccccc1 [AM095]
- cell viability (Caco-2 [1]; 1 nM): 91.2%
- cell viability (Caco-2 [1]; 10 nM): 97.4%
- cell viability (Caco-2 [1]; 100 nM): 93.3%
- cell viability (Caco-2 [1]; 1000 nM): 95.2%
- cell viability (Caco-2 [1]; 10000 nM): 94.9%
- cell viability (Calu-3 [2]; 1 nM): 114%
- cell viability (Calu-3 [2]; 10 nM): 95.7%
- cell viability (Calu-3 [2]; 100 nM): 95.7%
- cell viability (Calu-3 [2]; 1000 nM): 98.3%
- cell viability (Calu-3 [2]; 10000 nM): 102%
- cell viability (HepG2 [3]; 1 nM): 87.3%
- cell viability (HepG2 [3]; 10 nM): 104%
- cell viability (HepG2 [3]; 100 nM): 99.8%
- cell viability (HepG2 [3]; 1000 nM): 101%
- cell viability (HepG2 [3]; 10000 nM): 91.6%
- cell viability (U2OS [4]; 1 nM): 94.9%
- cell viability (U2OS [4]; 10 nM): 95.3%
- cell viability (U2OS [4]; 100 nM): 99%
- cell viability (U2OS [4]; 1000 nM): 93%
- cell viability (U2OS [4]; 10000 nM): 97.5%
- cell viability (Vero E6 [13]; 1 nM): 95%
- cell viability (Vero E6 [13]; 10 nM): 98%
- cell viability (Vero E6 [13]; 100 nM): 91.4%
- cell viability (Vero E6 [13]; 1000 nM): 81.3%
- cell viability (Vero E6 [13]; 10000 nM): 64.2%
- relative viability EC50 (Caco-2 [5]): > 10 µM
- relative viability EC50 (Calu-3 [6]): > 10 µM
- relative viability EC50 (HepG2 [7]): > 10 µM
- relative viability EC50 (U2OS [8]): > 10 µM
- drug sensitivity score (Caco-2 [9]): 0
- drug sensitivity score (Calu-3 [10]): 0
- drug sensitivity score (HepG2 [11]): 0
- drug sensitivity score (U2OS [12]): 0
- drug sensitivity score (Vero E6 [15]): 3.9
